The values that follow come from the OligoGym collection.

Oligonucleotides are written 5' to 3', each unit as a sugar letter and its base; * is a phosphorothioate linkage, no mark a phosphodiester; rarer units and linkages stand in square brackets, end groups in braces. Plain capitals give the bases only. d = 2'-deoxy (DNA); r = 2'-OH (RNA)
Also: test concentration or dose not given here.

The target of the first data set is DENND5A. Nature of the data set: reporter assay of Huesken 2005. As to conditions: siRNA.
As to “sense rUrGrArArGrArGrGrUrGrArCrUrArGrCrArArGdTdT / antisense rCrUrUrGrCrUrArGrUrCrArCrCrUrCrUrUrCrAdTdA”, the normalised inhibition (eCFP-eYFP dual reporter) came out at 68.6%. Still for that read-out and setting: under “sense rUrGrArArGrGrArArUrGrCrCrGrCrArArUrArAdTdT / antisense rUrUrArUrUrGrCrGrGrCrArUrUrCrCrUrUrCrAdGdC” stands 77.7%. “sense rUrGrArArUrGrUrUrCrGrGrArCrArCrCrUrArCdTdT / antisense rGrUrArGrGrUrGrUrCrCrGrArArCrArUrUrCrAdAdC” yielded a normalised inhibition (eCFP-eYFP dual reporter) of 49%.

As for “sense rUrGrArUrCrUrCrCrUrGrGrArArArGrGrArUrCdTdT / antisense rGrArUrCrCrUrUrUrCrCrArGrGrArGrArUrCrAdCdA”, the normalised inhibition (eCFP-eYFP dual reporter) was determined as 44.1%. As to “sense rUrGrCrArArArArCrUrUrUrGrArUrArArArGrCdTdT / antisense rGrCrUrUrUrArUrCrArArArGrUrUrUrUrGrCrAdTdT”, the normalised inhibition (eCFP-eYFP dual reporter) amounted to 46%.

For the substance “sense rUrGrCrArGrGrArGrUrUrCrArArCrArUrCrArCdTdT / antisense rGrUrGrArUrGrUrUrGrArArCrUrCrCrUrGrCrAdAdT”, the normalised inhibition (eCFP-eYFP dual reporter) is 62.5%. Turning to “sense rUrGrCrCrCrGrGrCrUrGrCrArArGrCrCrUrUrGdTdT / antisense rCrArArGrGrCrUrUrGrCrArGrCrCrGrGrGrCrAdAdT”, the normalised inhibition (eCFP-eYFP dual reporter) was determined as 56.4%. The substance “sense rUrGrCrCrGrCrArArUrArArGrArCrCrArArGrAdTdT / antisense rUrCrUrUrGrGrUrCrUrUrArUrUrGrCrGrGrCrAdTdT” registered a normalised inhibition (eCFP-eYFP dual reporter) of 69.3%. On the same count and under the same terms, as for “sense rUrGrCrCrGrCrUrCrCrCrArCrCrUrCrCrUrGrGdTdT / antisense rCrCrArGrGrArGrGrUrGrGrGrArGrCrGrGrCrAdCdC”, the figure is 24.9%.

For the substance “sense rUrGrGrArUrGrArCrCrGrGrUrCrArArArGrCrUdTdT / antisense rArGrCrUrUrUrGrArCrCrGrGrUrCrArUrCrCrAdGdG”, the normalised inhibition (eCFP-eYFP dual reporter) worked out at 67.7%. With “sense rUrGrGrGrGrUrCrUrArUrGrGrGrCrCrArArUrAdTdT / antisense rUrArUrUrGrGrCrCrCrArUrArGrArCrCrCrCrAdGdA”, the normalised inhibition (eCFP-eYFP dual reporter) was found to be 66.7%. The substance “sense rUrGrUrUrUrGrCrArGrArUrUrArUrGrArGrGrCdTdT / antisense rGrCrCrUrCrArUrArArUrCrUrGrCrArArArCrAdTdC” had a normalised inhibition (eCFP-eYFP dual reporter) of 38.5%. The substance “sense rUrUrArCrCrArGrArGrArCrUrGrArUrGrArCrUdTdT / antisense rArGrUrCrArUrCrArGrUrCrUrCrUrGrGrUrArAdTdG” gave a normalised inhibition (eCFP-eYFP dual reporter) of 28.8%.

In the case of “sense rUrUrCrArUrUrGrArCrArArCrArArArArUrArAdTdT / antisense rUrUrArUrUrUrUrGrUrUrGrUrCrArArUrGrArAdAdG”, the normalised inhibition (eCFP-eYFP dual reporter) was 97.8%.

In the case of “sense rUrUrCrCrUrArCrGrArGrCrUrUrCrUrUrArArGdTdT / antisense rCrUrUrArArGrArArGrCrUrCrGrUrArGrGrArAdTdG”, the normalised inhibition (eCFP-eYFP dual reporter) was 59.8%. On the same count and under the same terms, as for “sense rUrUrCrCrUrUrGrArUrUrCrGrUrGrUrGrCrUrGdTdT / antisense rCrArGrCrArCrArCrGrArArUrCrArArGrGrArAdTdT”, the figure is 22.1%. “sense rUrUrCrGrUrGrUrGrCrUrGrCrArGrArCrArUrUdTdT / antisense rArArUrGrUrCrUrGrCrArGrCrArCrArCrGrArAdTdC” yielded a normalised inhibition (eCFP-eYFP dual reporter) of 40.2%. Still for that read-out and setting: under “sense rUrUrCrUrGrGrGrGrUrCrUrArUrGrGrGrCrCrAdTdT / antisense rUrGrGrCrCrCrArUrArGrArCrCrCrCrArGrArAdAdA” stands 63.2%; under “sense rUrUrGrArCrCrArArGrArUrGrCrArGrUrArGrGdTdT / antisense rCrCrUrArCrUrGrCrArUrCrUrUrGrGrUrCrArAdAdG”, 57.9%; under “sense rUrUrGrArGrArArGrArArCrArUrUrCrArArArUdTdT / antisense rArUrUrUrGrArArUrGrUrUrCrUrUrCrUrCrArAdTdG”, 54.7%. Still for that read-out and setting: as for “sense rUrUrGrCrArUrUrCrCrUrArCrGrArGrCrUrUrCdTdT / antisense rGrArArGrCrUrCrGrUrArGrGrArArUrGrCrArAdAdG”, the figure is 50.8%; as for “sense rUrUrUrCrArCrUrCrArGrArUrGrUrUrUrGrCrAdTdT / antisense rUrGrCrArArArCrArUrCrUrGrArGrUrGrArArAdCdG”, 42.4%.

“sense rUrUrUrGrGrGrUrUrUrGrCrCrCrUrCrArCrArUdTdT / antisense rArUrGrUrGrArGrGrGrCrArArArCrCrCrArArAdTdG” had a normalised inhibition (eCFP-eYFP dual reporter) of 73.4%.

The target in the next data set is P2RX3. Nature of the data set: reporter assay of Huesken 2005. Particulars: siRNA. For orientation: A reporter such as luciferase makes a cellular process visible.
Turning to “sense rArArCrCrGrArGrUrArGrUrUrCrArGrCrUrUrCdTdT / antisense rGrArArGrCrUrGrArArCrUrArCrUrCrGrGrUrUdGdA”, the normalised inhibition (eCFP-eYFP dual reporter) came out at 62%. On the same count and under the same terms, as for “sense rArArGrArCrCrUrGrCrCrGrCrUrUrCrCrArCrCdTdT / antisense rGrGrUrGrGrArArGrCrGrGrCrArGrGrUrCrUrUdCdA”, the figure is 39.9%. The substance “sense rArArUrCrArGrArUrGrCrArArGrGrArUrUrCrUdTdT / antisense rArGrArArUrCrCrUrUrGrCrArUrCrUrGrArUrUdTdT” returned a normalised inhibition (eCFP-eYFP dual reporter) of 79.2%.

Substance “sense rArCrArGrCrCrArGrGrGrArCrArUrGrArArGrAdTdT / antisense rUrCrUrUrCrArUrGrUrCrCrCrUrGrGrCrUrGrUdCdA” yielded a normalised inhibition (eCFP-eYFP dual reporter) of 78.1%. As to “sense rArCrArGrCrUrCrUrGrUrGrCrUrCrCrGrGrArCdTdT / antisense rGrUrCrCrGrGrArGrCrArCrArGrArGrCrUrGrUdAdG”, the normalised inhibition (eCFP-eYFP dual reporter) was 59.2%. Substance “sense rArCrCrArGrUrArCrArArArGrCrCrArArGrArAdTdT / antisense rUrUrCrUrUrGrGrCrUrUrUrGrUrArCrUrGrGrUdCdG” displayed a normalised inhibition (eCFP-eYFP dual reporter) of 82.9%.

Take “sense rArCrCrArUrCrGrGrGrArUrCrArUrCrArArCrCdTdT / antisense rGrGrUrUrGrArUrGrArUrCrCrCrGrArUrGrGrUdCdC”: the normalised inhibition (eCFP-eYFP dual reporter) amounted to 25.1%.

For the substance “sense rArCrCrCrGrGrCrUrCrGrArCrArGrCrGrUrUrUdTdT / antisense rArArArCrGrCrUrGrUrCrGrArGrCrCrGrGrGrUdGdA”, the normalised inhibition (eCFP-eYFP dual reporter) turned out to be 94.1%. Still for that read-out and setting: under “sense rArCrCrUrGrUrGrArGrArUrCrCrArGrGrGrCrUdTdT / antisense rArGrCrCrCrUrGrGrArUrCrUrCrArCrArGrGrUdCdC” stands 50.2%. The substance “sense rArCrGrCrCrArArCrArGrArGrUrCrArUrGrGrAdTdT / antisense rUrCrCrArUrGrArCrUrCrUrGrUrUrGrGrCrGrUdAdG” had a normalised inhibition (eCFP-eYFP dual reporter) of 89.2%. Same read-out and setting: as for “sense rArCrGrCrCrArCrCrUrCrArGrGrGrCrArCrCrUdTdT / antisense rArGrGrUrGrCrCrCrUrGrArGrGrUrGrGrCrGrUdCdA”, the figure is 8.6%; as for “sense rArCrUrCrCrUrUrCrArCrCrCrGrGrCrUrCrGrAdTdT / antisense rUrCrGrArGrCrCrGrGrGrUrGrArArGrGrArGrUdAdT”, 80.2%.
